In patent publication US20070191480A1, “Gycol Ether Miticides and Anti-Allergen Treatments” (priority 2004, published 2007):
Read-outs that look alike come from different tables or passages of the source. Each block holds one compound with its values, some of them ahead of it.

How the values were obtained:
dust mites = test: Dust mite kill efficacy, submersion method; type: in vivo; details: for 1% HC Solution: % kill at 30 min / 1% HC Solution: time to 100% kill: 1% HC solution with 1% Stepanol WAC; for 1% HC Solution: % kill at 30 min: None = no kill; for 1% HC with 7% DPnP Solution: % kill at 30 min / 1% HC with 7% DpnP at 9.5 pH: % kill at 30 min / 1% HC with 7% DPnP Solution: time to 100% kill / 1% HC with 7% DpnP at 9.5 pH: time to 100% kill: 1% Stepanol WAC; for 1% HC with 7% DpnP at 9.5 pH: % kill at 30 min / 1% HC with 7% DpnP at 9.5 pH: time to 100% kill: pH 9.5; for 8% Solution: time to 100% kill: 8% glycol ether/ester in water with 1% Stepanol WAC, mites immersed, maximum time period 30 minutes; for 1% HC Solution: time to 100% kill: solution pH (6.30-7.26); for 1% HC Solution: time to 100% kill / 1% HC with 7% DPnP Solution: time to 100% kill / 1% HC with 7% DpnP at 9.5 pH: time to 100% kill: maximum 30 minutes; for >50% kill in 30 min.: 8% or saturated solutions in water, dust mites
From the text: To test the efficacy of the cleaning composition containing glycol ether, glycol ether ester, and combinations thereof for their ability to kill dust mites, a submersion method was used. The dust mites were immersed in the following solutions with a 1% or 8% glycol ether, glycol ether ester or a combination thereof. In addition to the glycol ether and or glycol ether ester, the solution also contained about 1% Stepanol® WAC (sodium lauryl sulfate) surfactant and the remainder of the solution was water. The pH of the aqueous solution was maintained between about 5 to 10.
After the dust mites were immersed in the solution they were tested each minute to determine if they were still alive or not. To test if the mites were alive after treatment, they are viewed under a dissecting microscope and poked with a 26-guage needle to induce movement. […] Since sometimes dust mites may appear to-be dead after treatment and then recover a few days later, a treated population and a control sample were placed in a high humidity desiccators and poke tests were conducted over several days following the initial treatment to ensure that the initial reported kill rates were accurate.

Vapor pressure = test: Vapor pressure
Protocol: The preferred vapor pressure of the solvents is less than about 1 mm Hg at 20° C., and preferably the vapor pressure is less than 0.5 mm Hg at 20° C.

[1] = Solubility in water at 20° C.

Compound: OCCOc1ccccc1 [Dowanol Eph, ethylene glycol phenyl ether]
1% HC Solution: % kill at 30 min (dust mites): 95% kill | 1% HC with 7% DPnP Solution: % kill at 30 min (dust mites): 95% kill | 1% HC with 7% DpnP at 9.5 pH: % kill at 30 min (dust mites): 50% kill | 8% Solution: time to 100% kill (dust mites): 17 min

Compound: CC(O)COc1ccccc1 (stereo not shown) [Dowanol PPh, propylene glycol phenol ether]
1% HC Solution: time to 100% kill (dust mites): 22 min | 1% HC with 7% DPnP Solution: time to 100% kill (dust mites): 30 min | 1% HC with 7% DpnP at 9.5 pH: time to 100% kill (dust mites): 26 min | 8% Solution: time to 100% kill (dust mites): 7 min

Vapor Pressure (mm Hg) (Vapor pressure; at 20° C.): 0.05 mm Hg | Solubility in water at 20° C. [1]: 18%
Compound: CCCOC(C)COC(C)CO (stereo not shown) [Dipropylene glycol n-propyl ether]
>50% kill in 30 min. (dust mites): No

Compound: CCCCOCCO [Ethylene glycol n-butyl ether]
>50% kill in 30 min. (dust mites): No | Vapor Pressure (mm Hg) (Vapor pressure; at 20° C.): 0.6 mm Hg

Compound: COCCOCCO [Diethylene glycol methyl ether]
>50% kill in 30 min. (dust mites): no | Vapor Pressure (mm Hg) (Vapor pressure; at 20° C.): 0.2 mm Hg | Solubility in water at 20° C. [1]: 100%

Compound: CCCCOCCOCCOC(C)=O [Butyl Carbitol Acetate, diethylene glycol n-butyl ether acetate]
1% HC Solution: % kill at 30 min (dust mites): 50% kill | 1% HC with 7% DPnP Solution: % kill at 30 min (dust mites): 90% kill | 1% HC with 7% DpnP at 9.5 pH: % kill at 30 min (dust mites): 80% kill | 8% Solution: time to 100% kill (dust mites): 20 min | >50% kill in 30 min. (dust mites): Yes | Vapor Pressure (mm Hg) (Vapor pressure): 0.04 mm Hg

Vapor Pressure (mm Hg) (Vapor pressure; at 20° C.): 1.8 mm Hg | Solubility in water at 20° C. [1]: 100%
Compound: CCCOCC(C)O (stereo not shown) [Propylene glycol n-propyl ether]
>50% kill in 30 min. (dust mites): No

Vapor Pressure (mm Hg) (Vapor pressure): 0.05 mm Hg
Compound: COC(C)COC(C)COC(C)=O (stereo not shown) [Dipropylene glycol methyl ether acetate]
>50% kill in 30 min. (dust mites): Yes

Compound: CCCCOCCOC(C)=O [Butyl Cellosolve Acetate, ethylene glycol n-butyl ether acetate]
1% HC Solution: time to 100% kill (dust mites): 22 min | 1% HC with 7% DPnP Solution: time to 100% kill (dust mites): 18 min | 1% HC with 7% DpnP at 9.5 pH: time to 100% kill (dust mites): 16 min | 8% Solution: time to 100% kill (dust mites): 4 min | >50% kill in 30 min. (dust mites): Yes | Vapor Pressure (mm Hg) (Vapor pressure; at 20° C.): 0.29 mm Hg | Solubility in water at 20° C. [1]: 1%

Compound: CCCCOCC(C)O (stereo not shown) [Dowanol PnB, propylene glycol n-butyl ether]
1% HC Solution: % kill at 30 min (dust mites): None | 1% HC with 7% DPnP Solution: time to 100% kill (dust mites): 29 min | 1% HC with 7% DpnP at 9.5 pH: % kill at 30 min (dust mites): 60% kill | 8% Solution: time to 100% kill (dust mites): 17 min | >50% kill in 30 min. (dust mites): Yes | Vapor Pressure (mm Hg) (Vapor pressure): 0.62 mm Hg

Vapor Pressure (mm Hg) (Vapor pressure): 0.12 mm Hg
Compound: CCOCCOCCO [Diethylene glycol ethyl ether]
>50% kill in 30 min. (dust mites): No

Compound: CCCCCCOCCO [Hexyl Cellosolve, ethylene glycol monohexyl ether]
1% HC Solution: time to 100% kill (dust mites): 15 min | 1% HC with 7% DPnP Solution: time to 100% kill (dust mites): 14 min | 1% HC with 7% DpnP at 9.5 pH: time to 100% kill (dust mites): 26 min | 8% Solution: time to 100% kill (dust mites): 11 min | >50% kill in 30 min. (dust mites): Yes | Vapor Pressure (mm Hg) (Vapor pressure): <1.0 mm Hg

Compound: CCCCOC(C)COC(C)COC(C)CO (stereo not shown) [Dowanol TPnB, Tripropylene glycol n-butyl ether]
1% HC Solution: % kill at 30 min (dust mites): None | 1% HC with 7% DPnP Solution: % kill at 30 min (dust mites): 90% kill | 1% HC with 7% DpnP at 9.5 pH: % kill at 30 min (dust mites): No kill | 8% Solution: time to 100% kill (dust mites): 20 min | >50% kill in 30 min. (dust mites): Yes | Vapor Pressure (mm Hg) (Vapor pressure; at 20° C.): <0.01 mm Hg

Compound: CCCCCCOCCOCCO [Hexyl Carbitol, diethylene glycol monohexyl ether]
1% HC Solution: % kill at 30 min (dust mites): None | 1% HC with 7% DPnP Solution: time to 100% kill (dust mites): 26 min | 1% HC with 7% DpnP at 9.5 pH: % kill at 30 min (dust mites): No kill | 8% Solution: time to 100% kill (dust mites): 25 min

Vapor Pressure (mm Hg) (Vapor pressure): 3.8 mm Hg
Compound: COCC(C)OC(C)=O (stereo not shown) [Propylene glycol methyl ether acetate]
>50% kill in 30 min. (dust mites): No

Vapor Pressure (mm Hg) (Vapor pressure): 1.3 mm Hg
Compound: CCCOCCO [Ethylene glycol n-propyl ether]
>50% kill in 30 min. (dust mites): No

Vapor Pressure (mm Hg) (Vapor pressure; at 20° C.): 0.02 mm Hg | Solubility in water at 20° C. [1]: 100%
Compound: CCCCOCCOCCO [Diethylene glycol n-butyl ether]
>50% kill in 30 min. (dust mites): No

Compound: COCC(C)O (stereo not shown) [Propylene glycol methyl ether]
>50% kill in 30 min. (dust mites): No | Vapor Pressure (mm Hg) (Vapor pressure; at 20° C.): 8.1 mm Hg | Solubility in water at 20° C. [1]: 100%

Vapor Pressure (mm Hg) (Vapor pressure): 0.17 mm Hg
Compound: COC(C)COC(C)CO (stereo not shown) [Dipropylene glycol methyl ether]
>50% kill in 30 min. (dust mites): No
